Patent US10449198B2, “Method for treating pain” (The University of Liverpool, priority 2016, dated 2019)

Assays:
neuropathic rats [1] = assay: Neuropathic pain model (partial sciatic nerve ligation): cold hyperalgesia, 10° C. cold plate paw withdrawal latency; type: in vivo, rat
Procedure: Fasted, male, Wistar rats. n=6/group. Vehicle: 10% DMSO/10% Solutol HS15/80% saline. 10 ml/kg p.o. One-way ANOVA, comparison with time-matched vehicle group using Tukey's HSD test, *p<0.05, **p<0.01, ***p<0.001.
• 1) In rats a peripheral neuropathy was induced by partial ligation of the sciatic nerve in one hind limb. • 2) Two weeks (12-15 days) after induction of peripheral neuropathy stable mechanical (tactile) allodynia was induced in the hind paw of the affected limb. • 3) Five treatment groups of male SD rats (n=8) were used: vehicle control (drug formulation), 3 drug doses, and a positive control, lamotrigine (30 mg/kg). Animals were randomized between groups and the experiment was carried out using blinded conditions. The study was split with n=4/group in each experiment. • 4) Baseline behavioural measurements were obtained prior to surgery and at intervals post-surgery. Predose behavioural measurements were obtained by measuring paw withdrawal thresholds 12-15 days following nerve ligation. • 5) Compound efficacy was determined by measuring paw withdrawal thresholds at specified intervals following vehicle/compound treatment. Animals […]
(§1) Compound/vehicle were administered at specified doses. Following treatment, further readings were taken; 1, 3, 6 and 24 hour after p.o. administration.
Cold sensitivity was assessed using a commercially available cold-plate (Ugo Basile, Milan). The cold-plate was set according to pre-determined calibration data using a surface temperature probe to correlate set temperature to actual surface temperature over a wide temperature range (−5° C. to 26° C.). […] Paw withdrawal latencies were determined with the cold-plate set at 10° C. […] The end point was taken as the withdrawal of the paw and recorded as the withdrawal latency for the ipsilateral and the contralateral paw. […]
(§2) Raw data were analysed using parametric statistical tests, including one-way analysis of variance (ANOVA) followed by Tukey's post hoc test repeated measures of ANOVA. […]

α1 glycine = molecular target: T1, α1 glycine (Homo sapiens, UniProt P23415); assay: Glycine receptor activity, two-electrode voltage-clamp in Xenopus laevis oocytes; type: cell-based; conditions: TEVC, holding potential −70 mV
T1 construct: expressed in transfected cells; host or cells: Xenopus laevis oocytes (cRNA injection)
T1 sequence (P23415 29-457): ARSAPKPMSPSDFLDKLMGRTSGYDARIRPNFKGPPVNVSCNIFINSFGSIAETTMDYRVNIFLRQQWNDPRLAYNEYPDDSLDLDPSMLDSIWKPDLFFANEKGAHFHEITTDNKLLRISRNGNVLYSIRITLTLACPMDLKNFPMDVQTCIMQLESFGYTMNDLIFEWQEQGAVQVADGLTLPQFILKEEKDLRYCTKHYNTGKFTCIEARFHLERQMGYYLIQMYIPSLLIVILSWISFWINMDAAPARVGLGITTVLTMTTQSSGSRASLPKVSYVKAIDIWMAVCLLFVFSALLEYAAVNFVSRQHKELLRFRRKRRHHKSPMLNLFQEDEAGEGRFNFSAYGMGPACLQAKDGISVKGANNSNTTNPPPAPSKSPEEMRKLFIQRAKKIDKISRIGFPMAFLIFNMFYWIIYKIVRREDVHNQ
Procedure: Oocytes were surgically removed from adult female Xenopus laevis clawfrogs anaesthetized by immersion in 0.3% tricaine in water (w/v). All protocols were approved by the local animal care and use committee (II25.3-19c20/15; RP Darmstadt, Germany). Stage V and VI Oocytes were dissected and stored in sterile-filtered ND96 medium (composition in mM: 96 NaCl, 2 KCl, 1 CaCl, 1 MgCl, 5 HEPES, pH 7.4) containing gentamycin (50 μg/mL). The oocytes were isolated and enzymatically and maintained as described previously (Grudzinska et al., 2005). Oocytes were injected with 5 ng of cRNA using a Drummond microinjector (Drummond Scientific, Broomall, USA) and incubated in ND96 for 24 h at 18° C. before electrophysiological recording. Two-electrode voltage-clamp (TEVC) with microelectrodes containing 3 M KCl was performed in bath solution at a holding potential of −70 mV as described previously (Laube et al., 2000). […]
Currents were measured with Clampfit 9.2 software (Molecular Devices), Results were analyzed using the KaleidaGraph program (Synergy Software, Reading, Pa.) and GraphPad Prism version 5.0 (GraphPad Software Inc., San Diego, Calif.). […] For propofol and 4-chloropropofol modulation, responses to EC20 glycine after application were analyzed as described previously (Lynagh and Laube, 2014); mean±standard error of the mean (SEM) are reported. […]

neuropathic rats [2] = assay: Neuropathic pain model (partial sciatic nerve ligation): tactile allodynia / mechanical paw withdrawal thresholds; type: in vivo, rat
Procedure: Fasted, male, Wistar rats. n=6/group. Vehicle: 10% DMSO/10% Solutol HS15/80% saline. 10 ml/kg p.o. One-way ANOVA, comparison with time-matched vehicle group using Tukey's HSD test, *p<0.05, **p<0.01, ***p<0.001
Protocol for study of compounds in a model of neuropathic pain: reversal of tactile allodynia.
• 1) In rats a peripheral neuropathy was induced by partial ligation of the sciatic nerve in one hind limb. • 2) Two weeks (12-15 days) after induction of peripheral neuropathy stable mechanical (tactile) allodynia was induced in the hind paw of the affected limb. • 3) Five treatment groups of male SD rats (n=8) were used: vehicle control (drug formulation), 3 drug doses, and a positive control, lamotrigine (30 mg/kg). Animals were randomized between groups and the experiment was carried out using blinded conditions. The study was split with n=4/group in each experiment. • 4) Baseline behavioural measurements were obtained prior to surgery and at intervals post-surgery. Predose behavioural measurements were obtained by measuring paw withdrawal thresholds 12-15 days following nerve ligation. • 5) Compound efficacy was determined by measuring paw withdrawal thresholds at specified intervals following vehicle/compound treatment. Animals
All animal procedures were carried out in accordance with the UK Animals (Scientific Procedures) Act 1986 and associated guidelines. Animals were maintained in a controlled lighting environment and given food and water ad libitum. Male Sprague Dawley rats (120-140 g at time of surgery) were used.
Tests compounds as well as lamotrigine (30 mg/kg, volume: 10 ml/kg)) were prepared in the designated formulation (10% DMSO, Solutol HS 15/80% and 0.9% saline for p.o. administration) and administered via the chosen route.
Allodynia was examined in the model of neuropathic pain induced by partial ligation of the sciatic nerve as described by Seltzer et al (1990). […]
Tactile allodynia was assessed by measuring withdrawal thresholds to calibrated von Frey hairs. […] The lowest amount of force required to elicit a response was recorded as the paw withdrawal threshold (in grams).
Allodynia was measured on both the ipsilateral (ligated) and contralateral (non-ligated) paw prior to (pre-dose) and at a set time point following compound or vehicle administration (post-dose). […]
as §1, §2

[3] = contralateral (non-ligated) paw

CC(C)(C)c1cc(C(=O)N2CCOCC2)cc(C(C)(C)C)c1O [Compound 82, (3,5-Di-tert-butyl-4-hydroxyphenyl)(morpholino) methanone]
melting point: 174 to 176 °C
Peak reversal of cold hyperalgesia (neuropathic rats [1]; 30 mg/kg p.o., at 1 h, 10° C. cold plate, neuropathic rats): 74%
Contralateral paw withdrawal latencies to cold (neuropathic rats [1]; [3]): increased
Reversal of cold (10° C. cold plate) parameter (neuropathic rats [1]; p.o., neuropathic rats): marked and long-lasting reversal
EC50 (α1 glycine): 0.46 nM
Peak reversal of tactile allodynia (neuropathic rats [2]; 30 mg/kg p.o., at 1 h, ipsilateral paw, neuropathic rats): 72%
Efficacy across doses (cold and mechanical parameters) (neuropathic rats [2]; all three doses, p.o.): good and dose-related efficacy
Contralateral paw withdrawal thresholds to mechanical pressure (neuropathic rats [2]; [3]): significant increase
Reversal of mechanical (paw pressure) parameter (neuropathic rats [2]; p.o., neuropathic rats): marked and long-lasting reversal
